Assays:
Tetranychus urticae = assay: Test Example 1: spray test against Tetranychus urticae on brush bean, Controlling Rate; format: in vivo; details: 200 ppm, 30 ml sprayed over brush bean (Phaseolus vulgaris) with female adults
Experimental: The formulation obtained according to Formulation Example 1 using the present invention compounds (1) to (30) and the comparative compound (a) described below respectively, was diluted with water so that the concentration of the present invention compound or the comparative compound came to 200 ppm. About twenty female adults of Tetranychus urticae were set free on brush bean (Phaseolus vulgaris) in the primary leaf stage, which had been potted in a plastic cup for 7 days after the seeding. After 1 day, a 30 ml of the diluted formulation described-above was sprayed over the plant. On the 8th and 13th day after the application, the numbers of lived Tetranychus urticae on the leaf of brush bean plant were examined, and the Controlling Rates were calculated by the following scheme. Controlling Rate=100×{1−(a number of lived Tetranychus urticae in the treatment)/(a number of lived Tetranychus urticae in the non-treatment)}

[1] = test system: Adoxophyes orana fasciata; assay: Test Example 2: spray test on apple seedling against first-instar larvae of Adoxophyes orana fasciata, rate of dead pests; format: in vivo; details: 200 ppm, 30 ml sprayed over apple seedling, 7th day after application
Experimental: The formulation obtained according to Formulation Example 1 using the present invention compound (25): [drawing 138] and the comparative compound (b) described below respectively, was diluted with water so that the concentration of the present invention compound or the comparative compound came to 200 ppm. 30 ml of the diluted formulation described above was sprayed over the seedling of apple, which had been potted in plastic cup for 28 days after seeding about 15 cm height. After the sprayed solution was dried, about sixty first-instar larvae of Adoxophyes orana fasciata were set free on the apple seedling. On the 7 th day after application, the number of surviving or dyed Adoxophyes orana fasciata on the apple seedling was examined, and the rate of dead pests was calculated.

Compound | Controlling Rate (Tetranychus urticae; 8th day after the application) | Controlling Rate (Tetranychus urticae; 13th day after the application) | rate of dead pests [1]
Cc1nn(C)c(Oc2ccc(Oc3ccc(C(F)(F)F)cc3)cc2)c1C=NOCc1ccccc1 [comparative compound (a)] | less than 30% | less than 30% | –
Cc1nn(C)c(Oc2ccc(Oc3ccc(C(F)(F)F)cc3)cc2)c1C=O [comparative compound (b)] | – | – | less than 80%
C=CCOc1ccc(Oc2ccc(Oc3c(C)c(C)nn3C)cc2)cc1 [present invention compound (25)] | – | – | ≥ 90%
